No end group written: not given here.
Tests used:
[1] = tested on: B55α interactors; assay: MS analysis of B55α WT, V228A, I284A, S287A and D340A immunopurifications; assay type: binding, human; conditions: log2 ratio of interactor abundance, 4 replicates each, normalised to bait B55α; for log2_ratio_D340_WT: B55α D340A vs WT immunopurification; for log2_ratio I284_WT: B55α I284A vs WT immunopurification; for log2_ratio S287_WT: B55α S287A vs WT immunopurification; for log2_ratio V228_WT: B55α V228A vs WT immunopurification
Method: Standard cloning techniques were used throughout. Point mutations were introduced by whole plasmid polymerase chain reaction (PCR). All constructs were fully sequenced. Synthetic DNA was purchased from GeneArt, Life Technologies and cloned into pcDNA5/FRT/TO (Invitrogen) expression vector containing YFP, resulting in the indicated YFP fusion proteins. These constructs were transiently transfected into HeLa cells 24 hours before harvesting cells. Cells were lysed in lysis buffer [50 mM tris-HCl (pH 7.5), 50 mM NaCl, 1 mM EDTA, 1 mM […], and 0.1% NP-40]. Complexes were immunoprecipitated at 4°C in lysis buffer with green fluorescent protein (GFP)–Trap (ChromoTek) and washed in lysis buffer. Precipitated protein complexes were washed three times in lysis buffer, eluted in 2× SDS sample buffer, and subjected to Western blotting or MS as indicated.
Pull-downs were analyzed on a Q-Exactive Plus quadrupole or Fusion Orbitrap Lumos mass spectrometer (Thermo Fisher Scientific) equipped with Easy-nLC 1000 or […] (Thermo Fisher Scientific) and nanospray source (Thermo Fisher Scientific).
Static modifications included carbamidomethylcysteine, and variable modifications included oxidized methionine and STY phosphorylation. Searches were filtered using orthogonal measures including mass measurement accuracy (±3 parts per million), Xcorr for charges from +2 to +4, and dCn targeting a <1% false discovery rate at the peptide level. Quantification of LC-MS/MS spectra was performed using MassChroQ ([57]) and the iBAQ method ([58]). All data were analyzed using R 4.3.0. Missing values were imputed from a normal distribution. […] In each dataset, the abundance of the protein of interest was normalized to be equal across all samples. Statistical analyses were done using a two-tailed Student’s t test.

[2] = tested on: PP2A-B55α; assay: Affinity purification of YFP-tagged designed peptides from HeLa cells, binding to PP2A-B55α by Western blot; design: species or system human; conditions: experimental binding of YFP-tagged designed peptide to PP2A-B55α
[3] = molecular target: T1, B55α (Homo sapiens, UniProt P63151); assay: Surface plasmon resonance with captured Twin-Strep B55α; assay type: binding; conditions: same SPR approach as for B55i; fig. S15
T1 construct: His; made in house; host or cells: HEK293 cells
T1 sequence (P63151 1-447): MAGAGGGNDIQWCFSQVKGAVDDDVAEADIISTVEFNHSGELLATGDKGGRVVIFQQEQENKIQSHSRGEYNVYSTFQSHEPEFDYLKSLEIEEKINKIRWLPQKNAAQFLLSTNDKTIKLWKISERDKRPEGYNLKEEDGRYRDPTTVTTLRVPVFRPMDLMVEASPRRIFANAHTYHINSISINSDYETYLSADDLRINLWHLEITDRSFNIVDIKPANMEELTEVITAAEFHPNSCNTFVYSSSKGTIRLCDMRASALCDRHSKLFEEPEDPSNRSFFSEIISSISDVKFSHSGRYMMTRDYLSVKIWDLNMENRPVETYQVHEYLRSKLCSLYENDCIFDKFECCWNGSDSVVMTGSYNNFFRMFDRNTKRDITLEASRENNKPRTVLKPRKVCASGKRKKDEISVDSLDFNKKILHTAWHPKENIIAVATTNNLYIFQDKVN

Substance	log2_ratio_D340_WT [1]	log2_ratio I284_WT [1]	log2_ratio S287_WT [1]	log2_ratio V228_WT [1]	binding to PP2A-B55α (Western blot) [2]	binding to B55α, affinity range [3]
BAG3_HUMAN	0.51	0.79	1.17	0.37	–	–
DNJA2_HUMAN	1.00	0.64	1.02	0.87	–	–
DNJB6_HUMAN	-0.39	0.42	1.10	2.13	–	–
EEKLRILEKMEEKLKDKSLSLEKKVLLKNAKKSL	–	–	–	–	28	–
EKILEIAKKKIEELKKKPGGLDLEKYLLYKKLIEKV	–	–	–	–	15	–
EKRKKLKEKALEKLKDPNRDLEEKVLLRNWLKSL	–	–	–	–	14	–
ELIKRLYEKAKEKLKDESRSLEKKVLLRNWIKSL	–	–	–	–	62.5	–
ELPLEEVERLLKLAEEKLKDESLSLTKKVLLRNL	–	–	–	–	55.5	–
HAX1_HUMAN	-0.10	-0.26	0.0269	-0.50	–	–
HS90A_HUMAN	-0.17	-0.24	0.22	-0.28	–	–
HS90B_HUMAN	-0.13	-0.16	0.29	-0.12	–	–
HSPB1_HUMAN	-1.28	-0.92	-0.85	-0.80	–	–
LLELAKKKYEEELKKKEPDLTKLVLLKNVIKKLK	–	–	–	–	42	–
MQPINKARALYRISHLKLSNSKREQDEQVLLRLHMIAFLNIVNHT	–	–	–	–	0	–
PVKLQLLKKAKEKLADENLSLEKKVLLKNLIKSW	–	–	–	–	68	–
QIIQRSFSSPENFQRQAVMNSALRQMSYGGW [RBM7 129–158 WT]	–	–	–	–	–	low micromolar
QRLMTLSVWKMYHSRMQRGGEDAWLSLMLSLAMRLG	–	–	–	–	0	–
RLPINLERALYRLSHLKLSNSKRELYEQVALKLAMLGFLNLVNHT	–	–	–	–	11.5	–
SLIWQSNMDKALVKLQLCHMLEQPDLTKSVMILAGVLAAQEFM	–	–	–	–	0	–
